In patent US7528123B1, “Estrogenic estra-1,3,5(10)-trienes with differential effects on the alpha and beta estrogen receptors, having a linear hydrocarbon chain of from 5-9 carbon atoms in position 11” (N.V. Organon, priority 1998, dated 2009):

How the values were obtained:
[1] = target: T1, human estrogen receptor β (Homo sapiens, UniProt Q92731); test: CHO-ERβ bioassay: luciferase transactivation, estrogenic and anti-estrogenic activity; format: cell-based; settings: agonist or antagonist in recombinant CHO cells with hERβ, rat oxytocin promoter, luciferase reporter; standard Org 2317 (estradiol)
T1 construct: expressed in transfected cells; host or cells: CHO cells (CHO-ERβ RO LUC), stably co-transfected with rat oxytocin promoter-luciferase reporter
T1 sequence (Q92731 whole entry): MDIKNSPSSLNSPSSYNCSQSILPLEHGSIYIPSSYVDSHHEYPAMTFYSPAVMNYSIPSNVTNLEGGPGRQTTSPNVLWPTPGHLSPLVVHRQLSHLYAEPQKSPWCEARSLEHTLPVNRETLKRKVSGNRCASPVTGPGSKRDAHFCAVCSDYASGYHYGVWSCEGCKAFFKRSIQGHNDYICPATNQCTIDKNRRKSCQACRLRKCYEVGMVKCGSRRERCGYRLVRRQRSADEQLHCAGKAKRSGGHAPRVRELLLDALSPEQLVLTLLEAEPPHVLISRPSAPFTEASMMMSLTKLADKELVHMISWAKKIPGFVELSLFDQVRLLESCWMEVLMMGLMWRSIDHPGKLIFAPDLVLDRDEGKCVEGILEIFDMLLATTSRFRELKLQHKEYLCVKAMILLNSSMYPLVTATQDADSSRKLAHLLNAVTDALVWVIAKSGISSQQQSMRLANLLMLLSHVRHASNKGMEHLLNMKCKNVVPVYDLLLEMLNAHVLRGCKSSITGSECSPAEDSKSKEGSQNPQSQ
Experimental: (§1) Test medium: Intact recombinant CHO cells stably co-transfected with the rat oxytocin promoter and the luciferase reporter gene and either the human estrogen receptor β or the human estrogen receptor α. Both cell lines have been produced within the Department of Biotechnology and Biochemistry (BBC) (N. V. Organon) and are known under the name CHO-ERRO 2B1-1E9 for CHO-ERα and CHO-ERβ RO LUC for CHO-ERβ. The estrogenic activity of compounds is determined in an in vitro bioassay (CHO-ERα) with recombinant Chinese hamster ovary (CHO) cells stably co-transfected with the human estrogen α (hERα), the rat oxytocin promoter (RO) and the luciferase reporter gene (LUC). The estrogenic activity (potency ratio) of a test compound to promote the transactivation of the enzyme luciferase mediated via the estrogen receptor α is compared with the standard estrogen Org 2317 (estradiol 1,3,5 (10)-estratriene-3,17β-diol). The estrogenic activity (potency ratio) of a test compound to promote the transactivation of the enzyme luciferase mediated via the estrogen receptor β is determined in the same fashion but using recombinant Chinese hamster ovary (CHO) cells stably co-transfected with the human estrogen β (hERβ) (bioassay CHO-ERβ). The anti-estrogenic activity of compounds is determined in the same bioassays (CHO-ERα and CHO-ERβ), but now the anti-ERα and anti-ERβ activity (potency ratio) of a test compound to inhibit the transactivation of the enzyme luciferase mediated via ERα or ERβ by Org 2317 (estradiol 1,3,5 (10)-estratriene-3,17β-diol) is measured.

[2] = target: T2, human estrogen receptor α (Homo sapiens, UniProt P03372); test: CHO-ERα bioassay: luciferase transactivation, estrogenic and anti-estrogenic activity; format: cell-based; settings: agonist or antagonist in recombinant CHO cells with hERα, rat oxytocin promoter, luciferase reporter; standard Org 2317 (estradiol)
T2 construct: expressed in transfected cells; host or cells: CHO cells (CHO-ERRO 2B1-1E9), stably co-transfected with rat oxytocin promoter-luciferase reporter
T2 sequence (P03372 1-595): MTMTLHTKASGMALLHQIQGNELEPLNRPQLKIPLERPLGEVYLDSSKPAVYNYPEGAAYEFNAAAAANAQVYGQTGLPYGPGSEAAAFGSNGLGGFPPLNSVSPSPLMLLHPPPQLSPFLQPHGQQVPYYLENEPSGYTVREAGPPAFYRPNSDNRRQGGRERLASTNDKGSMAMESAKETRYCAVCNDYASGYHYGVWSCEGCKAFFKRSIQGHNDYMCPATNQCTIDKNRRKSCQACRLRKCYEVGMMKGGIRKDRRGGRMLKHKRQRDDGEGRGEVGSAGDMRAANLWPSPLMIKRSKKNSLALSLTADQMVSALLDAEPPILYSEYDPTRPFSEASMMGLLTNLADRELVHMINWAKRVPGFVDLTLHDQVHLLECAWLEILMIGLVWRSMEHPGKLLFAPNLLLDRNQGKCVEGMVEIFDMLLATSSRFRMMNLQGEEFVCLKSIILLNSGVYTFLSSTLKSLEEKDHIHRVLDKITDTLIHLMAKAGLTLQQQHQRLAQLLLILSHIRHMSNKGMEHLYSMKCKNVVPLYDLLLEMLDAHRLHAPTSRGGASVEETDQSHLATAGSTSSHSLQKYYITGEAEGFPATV
Experimental: as §1

| SMILES | ER-β [1] | ER-α [2] |
| --- | --- | --- |
| C[C@]12C[C@H](CC=C3CC3)[C@@H]3c4ccc(O)cc4CC[C@H]3[C@@H]1CC[C@@H]2O [Compound 7] | agonist | agonist |
| C#CCCC[C@H]1C[C@]2(C)[C@@H](O)CC[C@H]2[C@@H]2CCc3cc(O)ccc3[C@@H]12 [Compound 6] | antagonist | agonist |
| CC#CCC[C@H]1C[C@]2(C)[C@@H](O)CC[C@H]2[C@@H]2CCc3cc(O)ccc3C12 (stereo partly shown) [Compound 5] | antagonist | agonist |
| CCC[C@H]1C[C@]2(C)[C@@H](O)CC[C@H]2[C@@H]2CCc3cc(O)ccc3[C@@H]12 [Compound 9] | agonist | agonist |
| C#CCC[C@H]1C[C@]2(C)[C@@H](O)CC[C@H]2[C@@H]2CCc3cc(O)ccc3[C@@H]12 [Compound 4] | agonist | agonist |
| C=CCCC[C@H]1C[C@]2(C)[C@@H](O)CC[C@H]2[C@@H]2CCc3cc(O)ccc3[C@@H]12 [Compound 3] | antagonist | agonist |
| C=CC[C@H]1C[C@]2(C)[C@@H](O)CC[C@H]2[C@@H]2CCc3cc(O)ccc3[C@@H]12 [Compound 1] | agonist | agonist |
| CCCCC[C@H]1C[C@]2(C)[C@@H](O)CC[C@H]2[C@@H]2CCc3cc(O)ccc3[C@@H]12 [Compound 11] | antagonist | agonist |
| C=CCC[C@H]1C[C@]2(C)[C@@H](O)CC[C@H]2[C@@H]2CCc3cc(O)ccc3[C@@H]12 [Compound 2] | agonist | agonist |
| C[C@]12C[C@H](CCC=C3CC3)[C@@H]3c4ccc(O)cc4CC[C@H]3[C@@H]1CC[C@@H]2O [Compound 8] | antagonist | agonist |
| CCCC[C@H]1C[C@]2(C)[C@@H](O)CC[C@H]2[C@@H]2CCc3cc(O)ccc3[C@@H]12 [Compound 10] | agonist | agonist |
